Results on four molecules are retold here after paper PMC7757987, “Antitumor Activity and Mechanism Study of Riluzole and Its Derivatives” (Iranian Journal of Pharmaceutical Research : IJPR, 2020).

Data set [1] concerns SP2/0 (mouse myeloma cell line). The data set can be described thus: CCK-8 anti-proliferative assay, SP2/0. The conditions noted are these: for IC50: Mus musculus, CCK-8, 48 h, read-out: Cytotoxicity (IC50) SP2/0. Type of data set: cell-based. As for the experimental part:
(§1) HeLa (human cervical cancer cell line), HepG2 (human liver cancer cell line), SP2/0 (mouse myeloma cell line), and LO2 (human normal liver cell line) were cultured in DMEM medium. Each medium was supplemented with 10% fetal bovine serum, 1% L-glutamine and 1% penicillin/streptomycin solution. The cell lines were kept in the incubator at 37 ℃ in a humidified atmosphere (90% RH) containing 5% CO2. […] The cell lines SP2/0 and MCF-7 were obtained from Laboratory Center of Shaanxi Province People’s Hospital.
(§2) 2×10^3 cells per well were planted into 96-well plates in 100 μL growth medium and incubated for 24 h. […] The mixture was incubated at 37 ℃ under a humidified 5% CO2 atmosphere. After incubation, 10 μL CCK-8 solution was added to each well and the cells were further incubated for 2 h at 37 ℃ according to the CCK-8 Technical Manual. Then, the OD value for each well was read at wavelength 450 nm to determine the cell viability on a microplate reader (Synergy HT, USA). […] The independent experiment was repeated at least three times. The percentage of growth inhibition was calculated as follows according to reference ([18]),
(§3) % of growth inhibition = [1 - absorbance of treated cells/absorbance of untreated cells] × 100%

In data set [2] the test system is MCF-7 (human breast cancer cell line). The experiment in a line: CCK-8 anti-proliferative assay, MCF-7. Type of data set: cell-based. Particulars: for IC50: Homo sapiens, MCF7, CCK-8, 48 h, read-out: Cytotoxicity (IC50) MCF-7. As for the experimental part: as §1, §2, §3
Data set [3] can be described thus: CCK-8 cytotoxicity assay, normal LO2 cells. It is filed as cell-based, human. Particulars: human, LO2 normal liver cells; CCK-8, 48 h, normal liver cells; read-out: Cytotoxicity (IC50) L02. As for the experimental part:
as §1, §2, §3
A general note: Formazan colour is commonly taken as a measure of viable cells.

Data set [4] deals with HeLa (human cervical cancer cell line). The data set can be described thus: CCK-8 anti-proliferative assay, HeLa. Type of data set: cell-based. The conditions noted are these: for IC50: Homo sapiens, HeLa, CCK-8, 48 h, read-out: Cytotoxicity (IC50) HeLa. As for the experimental part:
as §1, §2, §3

The test system of data set [5] is HeLa, HepG2, SP2/0 and MCF-7. The data set can be described thus: CCK-8 anti-proliferative assay, all examined cancer cell lines. Type of data set: cell-based. The conditions noted are these: HepG2, SP2/0, MCF-7, CCK-8, 48 h. As for the experimental part: MCF-7 (breast cancer cell line) was cultured in RPMI-1640 medium. HeLa (human cervical cancer cell line), HepG2 (human liver cancer cell line), SP2/0 (mouse myeloma cell line), and LO2 (human normal liver cell line) were cultured in DMEM medium. Each medium was supplemented with 10% fetal bovine serum, 1% L-glutamine and 1% penicillin/streptomycin solution. The cell lines were kept in the incubator at 37 ℃ in a humidified atmosphere (90% RH) containing 5% CO2. […] The cell lines SP2/0 and MCF-7 were obtained from Laboratory Center of Shaanxi Province People’s Hospital.
2×10^3 cells per well were planted into 96-well plates in 100 μL growth medium and incubated for 24 h. Then, the cells were exposed to each compound in growth medium (DMSO< 0.5%) at five different concentrations (1.23, 3.70, 11.11, 33.33, and 100 μmol/L) for 48 h. The mixture was incubated at 37 ℃ under a humidified 5% CO2 atmosphere. After incubation, 10 μL CCK-8 solution was added to each well and the cells were further incubated for 2 h at 37 ℃ according to the CCK-8 Technical Manual. Then, the OD value for each well was read at wavelength 450 nm to determine the cell viability on a microplate reader (Synergy HT, USA). […] The independent experiment was repeated at least three times. The percentage of growth inhibition was calculated as follows according to reference ([18]),
as §3

Data set [6] deals with HepG2 (human liver cancer cell line). The experiment in a line: CCK-8 anti-proliferative assay, HepG2. It is filed as cell-based. The conditions noted are these: for IC50: Homo sapiens, HepG2, CCK-8, 48 h, read-out: Cytotoxicity (IC50) HepG2. As for the experimental part:
as §1, §2, §3

The test system of data set [7] is LO2 (human normal liver cell line). The experiment in a line: CCK-8 cytotoxicity assay, normal LO2 cells. Particulars: CCK-8. It is filed as cell-based. As for the experimental part: as §1, §2, §3
Data set [8] relates to HeLa cells. The experiment in a line: Scratch wound healing (anti-migration) assay. It is filed as cell-based, human. The conditions noted are these: 25 μmol/L, 24 h. As for the experimental part:
Once the monolayer was formed, a small scratch was made in the plate using a 10 μL pipette tip (0 h, day 1). The monolayer was once washed with PBS to remove debris or the detached cells from the monolayer. […] Images were taken using an inverted microscope ([19]). The experiments were performed in triplicate.
The relative scratch healing rate was calculated as follows according to reference ([20]),
Scratch healing rate = (scratch width at 0 h – the remaining scratch width at 24 h)/scratch width in 0 h×100%

In data set [9] the test system is HeLa cells. The data set can be described thus: Cell morphological assessment by Hoechst 33258 staining. Particulars: HeLa, 12.5, 25 and 50 μmol/L, 24 h. Type of data set: cell-based, human. As for the experimental part:
The cell morphological assessment was carried out as described by Wang S ([21]). Morphological changes, such as chromosomal condensation and fragmentation in the nuclei of HeLa, were observed by Hoechst 33258 staining. In brief, HeLa cells were seeded at a concentration of 1×10^6 cells/well in 6-well plate and treated with compound 4a (12.5, 25 and 50 μmol/L) for 24 h. Subsequently, the cells were harvested and washed once with PBS and then fixed with 4% paraformaldehyde in PBS for 10 min. After staining with 10 mg/L Hoechst 33258 for 5 min, the cells were visualized under a fluorescent microscope (Nikon, Japan).

In data set [10] the test system is HeLa cells. The data set can be described thus: Flow cytometric analysis of the cell cycle (PI). Type of data set: cell-based, human. Particulars: 24 h, control 3.66%. As for the experimental part: Cell cycle assay was performed using the cell cycle and apoptosis analysis kit (Beyotime, China) and following the manufacturer’s instructions. The HeLa cells were treated with the indicated concentrations of compound 4a (12.5, 25 and 50 μmol/L) for 24 h. Next, the cells were harvested and washed twice with PBS. The cells were fixed with cold 70% ethanol for 12 h at 4 ℃ and were harvested and centrifuged at 1000 g for 5 min. Then, the cell density was adjusted to 1×10^6 cells/mL with PBS. Finally, the cells were stained with a propidium iodide (PI) solution (50 μg/mL). The number of cells in each phase of the cell cycle was analyzed by flow cytometry (FACSCalibur; BD Bioscience, USA).

Data set [11] has as its system Bax, Bcl-2, Caspase-3, Cleaved caspase-3, PI3K in HeLa cells. The data set can be described thus: Western blot assay. Type of data set: cell-based, human. The conditions noted are these: 24 h; for Ratio of Bax/Bcl-2: HeLa, control 0.072. As for the experimental part:
HeLa cells were seeded into 6-well plates at 10^6 cells per well with different concentrations of compound 4a (12.5, 25 and 50 μmol/L) and incubated at 37 ℃ for 24 h in the presence of 10% FBS. The controls were treated with vehicle (0.5% DMSO). The cells were lysed into ice-cold cell lysis buffer for 30 min and centrifuged at 13000 g for 15 min at 4 ℃. The protein concentrations of the supernatant were determined by a BCA protein Assay Kit. Equal amounts of protein lysates were separated on 10% SDS-PAGE (sodium dodecyl sulfate-polyacrylamide gel electrophoresis) and transferred onto PVDF membranes. The membranes were blocked with 5% non-fat milk in TBST (0.1% Tween 20 in TBS) buffer for 2 h, incubated with primary antibodies at 1:1000 dilutions at 4 ℃, and washed by TBST four times. Then, the membrane was immunobloted with Bax, Bcl-2, Caspase-3, Cleaved caspase-3, PI3K, and β-actin primary antibodies at 1:1000 dilutions at 4 °C for 12 h. After secondary incubation in horseradish peroxidase-conjugated secondary antibodies at 1:3000 at room temperature for 2 h, protein bands were visualized on X-ray film (Kodak, Japan) using ECL (Beyotime, China). The immunoblots were detected by densitometric analysis. Equal loading of protein in each lane was confirmed by probing with β-actin antibody ([24]).
A general note: In western blotting, separated proteins are transferred to a membrane and probed.

The subject of data set [12] is HeLa cells. The data set can be described thus: Flow cytometric analysis of cell apoptosis (annexin V-FITC/PI). Type of data set: cell-based, human. The conditions noted are these: 24 h, control 0.02%. As for the experimental part: The cell apoptosis analysis was evaluated by using the annexin V-FITC apoptosis detection kit (Beyotime, China). Briefly, the HeLa cells (1×10^6 cells/well) were seeded into 6-well culture plates and incubated for 24 h. Then the cells were incubated for 24 h with the compound 4a (12.5, 25 and 50 μmol/L). The cells were then rinsed, resuspended in 60 μL binding buffer and incubated for 10 min with 5 μL annexin V-FITC at room temperature, followed by an addition of 120 μL binding buffer and 10 μL PI. The solutions were gently mixed and analyzed with the FACScan flow cytometry. The cells that were not treated were used as the control ([23]).
(In general: Flow cytometry measures light scatter and fluorescence of single cells or particles in a stream.)

`FC(F)(F)Oc1ccc2nc(N3CCOCC3)sc2c1` [Compound 4h, (N-morpholine)-6-trifluoromethoxy-benzothiazole]: the melting point (usually the temperature, or range, at which the solid turns liquid) lay in the range of 103 to 105 °C. Also, the IC50 in [1] was determined as 98.7 ± 3.28 µM. Further, the IC50 in [2] is > 100 µM. For the same molecule, the IC50 at 48 h in data set [3] is > 100 µM. Moreover, in data set [4], the IC50 was > 100 µM. In data set [5], the IC50 was > 100 µM. For the same molecule, in data set [6], the IC50 was > 100 µM.

Consider `FC(F)(F)Oc1ccc2nc(N3CCCC3)sc2c1` [Compound 4f, (N-pyrrolidine)-6-trifluoromethoxy-benzothiazole], for which the melting point was 129 to 130 °C. In [1], the IC50 is > 100 µM. In addition, the IC50 in data set [2] is > 100 µM. Also, the IC50 at 48 h in data set [3] came to 65.2 ± 3.53 µM. For the same molecule, the IC50 in data set [4] is > 100 µM. The IC50 in [5] was > 100 µM. The IC50 in data set [6] is > 100 µM.

For `CCNc1nc2ccc(OC(F)(F)F)cc2s1` [Compound 4a, 2-(N-ethylamine)-6-trifluoromethoxy-benzothiazole], the melting point is 133 to 134 °C. Further, in data set [1] (IC50 LO2 / IC50 SP2/0), the “Selectivity index (SI) SP2/0” value stood at 1.27. The IC50 in [1] was found to be 51.1 ± 2.73 µM. Further, the IC50 in data set [2] came to 7.72 ± 0.53 µM. Moreover, in data set [2] (IC50 LO2 / IC50 MCF-7), the “Selectivity index (SI) MCF-7” value worked out at 8.41. In data set [3], the IC50 at 48 h amounted to 65 ± 4.38 µM. Besides, the “Concentration up to which nontoxic to LO2 cells” value in [7] is “up to 65 μmol/L”. The “Relative scratch healing rate” value in data set [8] is recorded as “less than 20%”. In addition, the “Effect on HeLa cell migration” value in [8] (versus control group) was “significantly slower”. Moreover, in [4], the IC50 stood at 7.76 ± 0.45 µM. In addition, the “Selectivity index (SI) HeLa” value in data set [4] (IC50 LO2 / IC50 HeLa) is listed as 8.37. Also, in [9], the “Nuclear morphology (Hoechst 33258)” value was “nuclear condensation and fragmentation”. Besides, in [6], the IC50 came to 33.7 ± 1.04 µM. Further, the “Selectivity index (SI) HepG2” value in data set [6] (IC50 LO2 / IC50 HepG2) is listed as 1.93. The “Cells in the G2/M phase” value in data set [10] (12.5 μmol/L) is reported as 3.85%. Further, the “Cells in the G2/M phase” value in data set [10] (25 μmol/L) is given as 6.63%. Also, the “Cells in the G2/M phase” value in data set [10] (50 μmol/L) is on record as 8.00%. The “Ratio of Bax/Bcl-2” value in [11] (12.5μM) is listed as 0.087. In [11] (25μM), the “Ratio of Bax/Bcl-2” value was 1.092. Also, the “Ratio of Bax/Bcl-2” value in data set [11] (50μM) is recorded as 1.929. For the same molecule, in [11] (HeLa, 12.5, 25 and 50 μmol/L), the “Expression level of Caspase-3” value is on record as “not remarkably concentration-dependent change”, the “Expression level of PI3K” value is listed as “not remarkably concentration-dependent change”, the “Expression of Bcl-2” value was “reduced” and the “Level of Bax” value is on record as “increased”. Besides, the “Level of Cleaved caspase-3” value in data set [11] (HeLa, 12.5, 25 and 50 μmol/L) is “increased”. In data set [12] (12.5 μmol/L), the “Early apoptotic rate (LR quadrant)” value came out at 4.76%. Besides, the “Early apoptotic rate (LR quadrant)” value in data set [12] (25 μmol/L) is given as 9.63%. In addition, the “Early apoptotic rate (LR quadrant)” value in data set [12] (50 μmol/L) was found to be 19.81%.

The molecule `FC(F)(F)Oc1ccc2nc(Cl)sc2c1` [Compound 3, 2-chloro-6-trifluoromethoxy-benzothiazole] came in with a melting point of 38 to 39 °C. For the same molecule, the IC50 in data set [1] was > 100 µM. Besides, the IC50 in [2] is > 100 µM. In data set [3], the IC50 at 48 h was determined as 100 ± 6.07 µM. Moreover, the IC50 in data set [4] was > 100 µM. Besides, the IC50 in data set [5] was > 100 µM. Further, the IC50 in data set [6] is > 100 µM.
